Experimental data published in patent US12441706B2, “Protein degradation agent compound preparation method and application” (SHANGHAI JEMINCARE PHARMACEUTICALS CO., LTD., priority 2019, dated 2025).

What was measured:
[1] = In vivo pharmacokinetics in mice, intravenous injection and oral administration; design: species or system mouse; details: male CD1 mice
Description: In this experimental example, in vivo pharmacokinetics in mice were evaluated by intravenous injection and oral administration.
Experimental methods and conditions: Male CD1 mice, aged 6-8 weeks, all animals were free access to food and water, and were given a single dose of the compound to be tested at 1 mg/Kg by intravenous injection (solvent 5% DMSO/15% Solutol/80% Saline), at 5 min, 15 min, 30 min, 1 hr, 2 hr, 4 hr, 8 hr, 24 hr, 48 h after drug administration, or oral gavage administration of 10 mg/kg (solvent 5% DMSO/10% Solutol/85% Saline), at 15 min, 30 min, 1 hr, 2 hr, 4 hr, 6 h, 8 hr, 24 hr, 48 h after administration, blood was collected from the orbit, no less than 50 μL for each sample, heparin sodium was used for anticoagulation, and then placed on ice after collection, and centrifuged within 1 hour to separate the plasma for testing. The plasma concentration of the drug was detected by liquid tandem mass spectrometry (LC/MS/MS), and the pharmacokinetic parameters were calculated by Phoenix WinNonlin software.

[2] = test system: human prostate cancer VCaP cell subcutaneous xenograft tumor; assay: In vivo pharmacodynamic study, human prostate cancer VCaP cell subcutaneous xenograft tumor CB17 SCID mouse model; details: for tumor growth inhibition rate (TGI): castrated CB17 SCID mice, 24th day after administration
Description: Experimental animal: male mice of CB17 SCID strain, aged 6-8 weeks, weighing 18-22 grams, supplier: Beijing Weitong Lihua Laboratory Animal Technology Co., Ltd. Shanghai Branch, animal certificate number: 20170011005577. Animals were reared in the experimental environment for 7 days after arrival and the experiment was started.
Experimental method: Human prostate cancer cell VCaP cells (ATCC-CRL-2876) were cultured in vitro in monolayer, and the culture conditions were DMEM medium with 20% fetal bovine serum, 100 U/mL penicillin and 100 μg/mL streptomycin, cultured in a 5% CO2 incubator at 37° C. Conventional digestion with trypsin-EDTA was performed twice a week for passage. When the cell saturation was 80%-90% and the number reached the requirement, the cells were collected, counted, and inoculated. 0.2 mL (10× 10^6 cells+Matrigel) VCaP cells were subcutaneously inoculated into the left upper limb of each mouse, and castration was performed 33 days after cell inoculation. When the average tumor volume reached 119 mm^3, the drugs were administered in groups, and the doses of compound 14 were set to four groups: 1 mg/kg, 3 mg/kg, 10 mg/kg and 30 mg/kg.
Daily observation of experimental animals: the health status and death of animals were monitored every day. Routine examinations included observing the effects of tumor growth and drug treatment on the daily behavior of animals, such as behavioral activities, food and water intake (visual observation only), and weight changes (body weight measured three times a week), physical signs or other abnormal conditions.
Tumor measurements and experimental indicators: Experimental indicators were to examine whether tumor growth was inhibited, delayed or cured. Tumor diameters were measured with vernier calipers three times a week.
The calculation formula of tumor volume is: V=0.5a×b2, where a and b represented the long diameter and short diameter of the tumor, respectively. The antitumor effect of the compound was evaluated by TGI (%) or relative tumor proliferation rate T/C (%). TGI (%), reflecting the tumor growth inhibition rate. Calculation of TGI (%): TGI (%)=[1−(average tumor volume at the end of administration of a certain treatment group−average tumor volume at the beginning of administration of the treatment group)/(average tumor volume at the end of treatment in the vehicle control group−average tumor volume at the beginning of treatment in the vehicle control group)]×100%. Relative tumor proliferation rate T/C (%): the calculation formula is as follows: T/C %=TRTV/CRTV×100% (TRTV: RTV in the treatment group; CRTV: RTV in the negative control group). The relative tumor volume (RTV) was calculated according to the results of tumor measurement, and the formula is RTV=Vt/V0, where V0 is the average tumor volume measured at the time of group administration (i.e. d0), and Vt is the average tumor volume at a certain measurement, and TRTV and CRTV were taken on the same day. After the experiment, the tumor weight would be detected, and the percentage of T/Cweight would be calculated. Tweight and Cweight represent the tumor weight of the administration group and the vehicle control group, respectively.
Statistical analysis: Statistical analysis included the mean and standard error (SEM) of tumor volume at each time point for each group. […] T-test was used for comparison between two groups, and one-way ANOVA was used for comparison between three or more groups. […]

[3] = mouse, intravenous administration 1 mg/kg, plasma
[4] = mouse, oral administration 10 mg/kg, plasma

CC1(C)C(=O)N(c2ccc(C#N)c(Cl)c2)c2ccc(-c3ccc(N4CC(CN5CCN(c6ccc7c(c6)C(=O)N(C6CCC(=O)NC6=O)C7=O)CC5)C4)nc3F)cc21 (stereo not shown) [Compound 14]
F ([1]; oral administration 10 mg/kg vs intravenous 1 mg/kg): 68.6% | AUC(0-inf) [1, 3]: 10400 ng·h/mL | clearance [1, 3]: 1.61 mL/min/kg | half-life [1, 3]: 20.4 h | AUC(0-inf) [1, 4]: 71100 ng·h/mL | Cmax [1, 4]: 2650 ng/mL | half-life [1, 4]: 17.8 h | tolerance (body weight, FIG. 2) ([2]; 10 mpk and 30 mpk, CB17 SCID mice): better tolerance than Reference substance 1 | tumor growth inhibition rate (TGI) ([2]; dose 10 mpk): 96% | tumor growth inhibition rate (TGI) ([2]; dose 30 mpk): 96%
